# Test results as given in patent US9127001B2, “Substituted 4,5,6,7-tetrahydro-1H-pyrazolo[4,3-c]pyridines, their use as medicament, and pharmaceutical preparations comprising them” (Sanofi, priority 2011, dated 2015).
# Target: Human TASK-1 channels (Homo sapiens (Human), UniProt O14649)
# Assay: Activity on the TASK-1 channel in Xenopus oocytes (two-microelectrode voltage clamp)
# Assay type: cell-based
# Conditions: not given
# Method: Human TASK-1 channels were expressed in Xenopus oocytes. For this purpose, oocytes were isolated from Xenopus laevis and defoliculated. Subsequently, TASK-1-encoding RNA synthesized in vitro was injected into oocytes. […] Data were acquired and analyzed using a TEC-10cx amplifier (NPI Electronic, Tamm, Germany) connected to an ITC-16 interface (Instrutech Corp., Long Island, USA) and Pulse software (HEKA Elektronik, Lambrecht, Germany). […] Oocytes were continuously superfused with ND96 buffer containing: NaCl 96 mM, KCl 2 mM, CaCl2 1.8 mM, MgCl2 1 mM, HEPES 5 mM (pH adjusted to 7.4 with NaOH). All experiments were performed at room temperature.
# Test substances were consecutively added to the bath solution at rising concentrations. […] IC50 values were obtained by fitting the data to the general dose-response equation.
# Chain of Human TASK-1 channels (O14649 whole entry): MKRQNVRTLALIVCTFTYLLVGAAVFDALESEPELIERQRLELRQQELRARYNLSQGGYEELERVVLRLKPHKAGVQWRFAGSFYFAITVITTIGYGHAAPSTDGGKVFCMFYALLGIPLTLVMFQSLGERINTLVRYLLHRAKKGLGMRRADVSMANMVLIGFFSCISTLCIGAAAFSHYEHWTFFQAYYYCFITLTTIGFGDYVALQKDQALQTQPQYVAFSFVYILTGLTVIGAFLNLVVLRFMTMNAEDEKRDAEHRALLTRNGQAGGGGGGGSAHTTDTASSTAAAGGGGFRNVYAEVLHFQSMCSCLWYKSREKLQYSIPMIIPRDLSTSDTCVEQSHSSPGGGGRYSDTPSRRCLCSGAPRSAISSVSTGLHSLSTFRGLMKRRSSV
row,inhibition at 5 µM [%],SMILES
1,58,"CC(c1ccc(F)cc1)n1nc(-c2ccc(F)cc2)c2c1CCN(C(=O)NC(C)(C)C)C2 (single isomer, unassigned) [Example 11f, 3-(4-Fluoro-phenyl)-1-[1-(4-fluoro-phenyl)-ethyl]-1,4,6,7-tetrahydro-pyrazolo[4,3-c]pyridine-5-carboxylic acid tert-butylamide]"
2,76,"CC(=O)N1CCc2c(c(-c3ncccc3C)nn2Cc2ccc(F)cc2F)C1 [Example 6ab, 1-[1-(2,4-Difluoro-benzyl)-3-(3-methyl-pyridin-2-yl)-1,4,6,7-tetrahydro-pyrazolo[4,3-c]pyridin-5-yl]-ethanone]"
3,80,"COc1ccnc(-c2nn(Cc3ccc(F)cc3F)c3c2CN(C(C)=O)CC3)c1 [Example 6ac, 1-[1-(2,4-Difluoro-benzyl)-3-(4-methoxy-pyridin-2-yl)-1,4,6,7-tetrahydro-pyrazolo[4,3-c]pyridin-5-yl]-ethanone]"
4,86,"CC(=O)N1CCc2c(c(-c3cccc(C(F)(F)F)c3)nn2Cc2csc(C)n2)C1 [Example 6ad, 1-[1-(2-Methyl-thiazol-4-ylmethyl)-3-(3-trifluoromethyl-phenyl)-1,4,6,7-tetrahydro-pyrazolo[4,3-c]pyridin-5-yl]-ethanone]"
5,84,"CC(=O)N1CCc2c(c(-c3cccc(C(F)(F)F)c3)nn2Cc2nccs2)C1 [Example 6ae, 1-[1-Thiazol-2-ylmethyl-3-(3-trifluoromethyl-phenyl)-1,4,6,7-tetrahydro-pyrazolo[4,3-c]pyridin-5-yl]-ethanone]"
6,72,"CC(=O)N1CCc2c(c(-c3cccs3)nn2Cc2ccc(F)cc2F)C1 [Example 6af, 1-[1-(2,4-Difluoro-benzyl)-3-thiophen-2-yl-1,4,6,7-tetrahydro-pyrazolo[4,3-c]pyridin-5-yl]-ethanone]"
7,75,"CC(=O)N1CCc2c(c(-c3cccc(C)c3)nn2Cc2ccc(Cl)s2)C1 [Example 6ag, 1-[1-(5-Chloro-thiophen-2-ylmethyl)-3-m-tolyl-1,4,6,7-tetrahydro-pyrazolo[4,3-c]pyridin-5-yl]-ethanone]"
8,53,"CC(=O)N1CCc2c(c(-c3cccc(C(F)(F)F)c3)nn2Cc2ccc(Cl)s2)C1 [Example 6ah, 1-[1-(5-Chloro-thiophen-2-ylmethyl)-3-(3-trifluoromethyl-phenyl)-1,4,6,7-tetrahydro-pyrazolo[4,3-c]pyridin-5-yl]-ethanone]"
9,79,"CC(=O)N1CCc2c(c(-c3cccc(C#N)c3)nn2Cc2ccc(Cl)s2)C1 [Example 6ai, 3-[5-Acetyl-1-(5-chloro-thiophen-2-ylmethyl)-4,5,6,7-tetrahydro-1H-pyrazolo[4,3-c]pyridin-3-yl]-benzonitrile]"
10,76,"CC(=O)N1CCc2c(c(-c3cccc(Cl)c3)nn2Cc2ccc(Cl)s2)C1 [Example 6aj, 1-[3-(3-Chloro-phenyl)-1-(5-chloro-thiophen-2-ylmethyl)-1,4,6,7-tetrahydro-pyrazolo[4,3-c]pyridin-5-yl]-ethanone]"
11,75,"CC(=O)N1CCc2c(c(-c3ccsc3)nn2Cc2ccc(F)cc2F)C1 [Example 6al, 1-[1-(2,4-Difluoro-benzyl)-3-thiophen-3-yl-1,4,6,7-tetrahydro-pyrazolo[4,3-c]pyridin-5-yl]-ethanone]"
12,86,"CC(=O)N1CCc2c(c(-c3cccc(C#N)c3)nn2Cc2cc(F)ccc2F)C1 [Example 6ay, 3-[5-Acetyl-1-(2,5-difluoro-benzyl)-4,5,6,7-tetrahydro-1H-pyrazolo[4,3-c]pyridin-3-yl]-benzonitrile]"
13,89,"CC(=O)N1CCc2c(c(-c3cccc(C)c3)nn2Cc2ccc(F)cc2F)C1 [Example 6az, 1-[1-(2,4-Difluoro-benzyl)-3-m-tolyl-1,4,6,7-tetrahydro-pyrazolo[4,3-c]pyridin-5-yl]-ethanone]"
14,81,"CC(=O)N1CCc2c(c(-c3cccc(Cl)c3)nn2Cc2ccc(F)cc2C)C1 [Example 6ba, 1-[3-(3-Chloro-phenyl)-1-(4-fluoro-2-methyl-benzyl)-1,4,6,7-tetrahydro-pyrazolo[4,3-c]pyridin-5-yl]-ethanone]"
15,82,"CC(=O)N1CCc2c(c(-c3cccc(C)c3)nn2Cc2ccccc2F)C1 [Example 6bb, 1-[1-(2-Fluoro-benzyl)-3-m-tolyl-1,4,6,7-tetrahydro-pyrazolo[4,3-c]pyridin-5-yl]-ethanone]"

# Same assay, conditions: human TASK-1 expressed in Xenopus oocytes, currents during pulses to 40 mV, room temperature
row,IC50 [nM],SMILES
1,511,"CC(c1ccc(F)cc1)n1nc(-c2ccc(F)cc2)c2c1CCN(C(=O)N1CCOCC1)C2 (single isomer, unassigned) [Example 12b, {3-(4-Fluoro-phenyl)-1-[1-(4-fluoro-phenyl)-ethyl]-1,4,6,7-tetrahydro-pyr-azolo[4,3-c]pyridin-5-yl}-morpholin-4-yl-methanone]"
2,734,"CC(c1ccc(F)cc1)n1nc(-c2ccc(F)cc2)c2c1CCN(C(=O)N1CC[C@H](O)C1)C2 (single isomer, unassigned) [Example 12c]"
3,500,"CC(=O)N1CCc2c(c(-c3ccc(F)cc3)nn2C(C)c2ccc(F)cc2)C1 (single isomer, unassigned; (+)) [Example 6be, (+)-1-{3-(4-Fluoro-phenyl)-1-[1-(4-fluoro-phenyl)-ethyl]-1,4,6,7-tetrahydro-pyrazolo[4,3-c]pyridin-5-yl}-ethanone]"
4,500,"CC(=O)N1CCc2c(c(-c3ccc(F)cc3)nn2C(C)c2ccc(F)cc2)C1 (single isomer, unassigned; (-)) [Example 6bf, (−)-1-{3-(4-Fluoro-phenyl)-1-[1-(4-fluoro-phenyl)-ethyl]-1,4,6,7-tetrahydro-pyrazolo[4,3-c]pyridin-5-yl}-ethanone]"
5,270,"CC(=O)N1CCc2c(c(-c3ccc(Cl)s3)nn2Cc2ccc(F)cc2F)C1 [Example 6ak, 1-[3-(5-Chloro-thiophen-2-yl)-1-(2,4-difluoro-benzyl)-1,4,6,7-tetrahydro-pyrazolo[4,3-c]pyridin-5-yl]-ethanone]"
6,114,"CC(=O)N1CCc2c(c(-c3cccc(C(F)(F)F)c3)nn2Cc2ccc(C#N)cc2)C1 [Example 6am, 4-[5-Acetyl-3-(3-trifluoromethyl-phenyl)-4,5,6,7-tetrahydro-pyrazolo[4,3-c]pyridin-1-ylmethyl]-benzonitrile]"
7,187,"CC(=O)N1CCc2c(c(-c3cccc(C#N)c3)nn2C(C)c2ccc(F)cc2)C1 (centres unmarked) [Example 6an, 3-{5-Acetyl-1-[1-(4-fluoro-phenyl)-ethyl]-4,5,6,7-tetrahydro-1H-pyrazolo[4,3-c]pyridin-3-yl}-benzonitrile]"
8,258,"CC(=O)N1CCc2c(c(-c3ccc(F)cc3)nn2C(c2ccc(F)cc2)C2CC2)C1 (centres unmarked) [Example 6ao, 1-[1-[Cyclopropyl-(4-fluoro-phenyl)-methyl]-3-(4-fluoro-phenyl)-1,4,6,7-tetrahydro-pyrazolo[4,3-c]pyridin-5-yl]-ethanone]"
9,285,"CC(=O)N1CCc2c(c(-c3cccc(OC(F)(F)F)c3)nn2Cc2ccc(F)cc2F)C1 [Example 6ap, 1-[1-(2,4-Difluoro-benzyl)-3-(3-trifluoromethoxy-phenyl)-1,4,6,7-tetrahydro-pyrazolo[4,3-c]pyridin-5-yl]-ethanone]"
10,359,"CC(=O)N1CCc2c(c(-c3ccc(F)cc3)nn2Cc2c(F)cccc2F)C1 [Example 6aq, 1-[1-(2,6-Difluoro-benzyl)-3-(4-fluoro-phenyl)-1,4,6,7-tetrahydro-pyrazolo[4,3-c]pyridin-5-yl]-ethanone]"
11,552,"CC(=O)N1CCc2c(c(-c3ccc(F)cc3)nn2C(C)c2ccc(F)cc2)C1 (centres unmarked) [Example 6ar, 1-{3-(4-Fluoro-phenyl)-1-[1-(4-fluoro-phenyl)-ethyl]-1,4,6,7-tetrahydro-pyrazolo[4,3-c]pyridin-5-yl}-ethanone]"
12,659,"CC(=O)N1CCc2c(c(-c3ccc(F)cc3)nn2Cc2ccc(C(F)(F)F)cc2)C1 [Example 6as, 1-[3-(4-Fluoro-phenyl)-1-(4-trifluoromethyl-benzyl)-1,4,6,7-tetrahydro-pyrazolo[4,3-c]pyridin-5-yl]-ethanone]"
13,720,"COc1cccc(-c2nn(Cc3ccc(F)cc3F)c3c2CN(C(C)=O)CC3)c1 [Example 6at, 1-[1-(2,4-Difluoro-benzyl)-3-(3-methoxy-phenyl)-1,4,6,7-tetrahydro-pyrazolo[4,3-c]pyridin-5-yl]-ethanone]"
14,911,"CC(=O)N1CCc2c(c(-c3ccc(F)cc3)nn2Cc2cccc(C(F)(F)F)c2)C1 [Example 6av, 1-[3-(4-Fluoro-phenyl)-1-(3-trifluoromethyl-benzyl)-1,4,6,7-tetrahydro-pyrazolo[4,3-c]pyridin-5-yl]-ethanone]"
15,947,"CC(=O)N1CCc2c(c(-c3cccc(OC(F)(F)F)c3)nn2C(C)c2ccc(F)cc2)C1 (centres unmarked) [Example 6aw, 1-[1-[1-(4-Fluoro-phenyl)-ethyl]-3-(3-trifluoromethoxy-phenyl)-1,4,6,7-tetrahydro-pyrazolo[4,3-c]pyridin-5-yl]-ethanone]"
16,975,"COc1cc(-c2nn(Cc3ccc(F)cc3F)c3c2CN(C(C)=O)CC3)ccc1F [Example 6ax, 1-[1-(2,4-Difluoro-benzyl)-3-(4-fluoro-3-methoxy-phenyl)-1,4,6,7-tetrahydro-pyrazolo[4,3-c]pyridin-5-yl]-ethanone]"
17,172,"CC(=O)N1CCc2c(c(-c3cccc(C(F)(F)F)c3)nn2Cc2ccc(Cl)nc2)C1 [Example 6b, 1-[1-(6-Chloro-pyridin-3-ylmethyl)-3-(3-trifluoromethyl-phenyl)-1,4,6,7-tetrahydro-pyrazolo[4,3-c]pyridin-5-yl]-ethanone]"
